Laboratory results taken from ChEMBL document CHEMBL1201862, “PubChem BioAssay data set” (2004).
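Values below derive from 48-hour exposures of cells grown in 96-well plates, with endpoints linearly interpolated between the two concentrations bracketing the appropriate inhibition level. GI50 marks 50% less growth.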 Activity calls are given as the source filed them. Rule as the data show it: active = GI50 up to about 1.1 µM and inactive = higher.

Columns and labels:
Assay in all cases: NCI-60 cell line screen, 48 h
SK-MEL-2 = system: SK-MEL-2
A498 = system: A498
HL-60 = system: HL-60
HOP-62 = system: HOP-62
Malme-3M = system: Malme-3M
MOLT-4 = system: MOLT-4
UACC-62 = system: UACC-62
HOP-92 = system: HOP-92
HCT-116 = system: HCT-116
OVCAR-8 = system: OVCAR-8
NCI-H23 = system: NCI-H23
SN12C = system: SN12C
UACC-257 = system: UACC-257
SK-MEL-5 = system: SK-MEL-5
RPMI-8226 = system: RPMI-8226

Measured: GI50

O=C1CSC(/C(=C/c2ccccc2)c2nc3ccccc3[nH]2)=N1
inactive: SK-MEL-2 58.2 µM | A498 > 100 µM | HL-60 71.9 µM | HOP-62 41.2 µM | Malme-3M 60.5 µM | MOLT-4 > 100 µM | UACC-62 49.8 µM | HOP-92 61.4 µM | HCT-116 41.7 µM | OVCAR-8 47.2 µM | NCI-H23 28.1 µM | SN12C 75.3 µM | UACC-257 > 100 µM | SK-MEL-5 19.7 µM

COC(=O)/C(C#N)=C1\CCC(C(=O)OC)N1C (stereo not given)
inactive: SK-MEL-2 > 100 µM | A498 > 100 µM | HL-60 > 100 µM | HOP-62 > 100 µM | MOLT-4 > 100 µM | UACC-62 > 100 µM | HOP-92 > 100 µM | HCT-116 > 100 µM | OVCAR-8 > 100 µM | NCI-H23 > 100 µM | SN12C > 100 µM | UACC-257 > 100 µM | RPMI-8226 > 100 µM | SK-MEL-5 > 100 µM

C=Cc1c(-c2ccccc2)cnc2[nH]c3ccccc3c12
inactive: SK-MEL-2 > 50 µM | A498 > 50 µM | HL-60 > 50 µM | HOP-62 > 50 µM | Malme-3M > 50 µM | MOLT-4 > 50 µM | UACC-62 > 50 µM | HCT-116 > 50 µM | OVCAR-8 > 50 µM | NCI-H23 > 50 µM | SN12C > 50 µM | UACC-257 > 50 µM | RPMI-8226 > 50 µM | SK-MEL-5 > 50 µM

N#CC1CC2(C(=O)C1=O)c1ccccc1-c1ccccc12 (stereo not given)
inactive: SK-MEL-2 > 100 µM | A498 > 100 µM | HL-60 > 100 µM | HOP-62 > 100 µM | Malme-3M > 100 µM | MOLT-4 > 100 µM | UACC-62 > 100 µM | HCT-116 > 100 µM | OVCAR-8 > 100 µM | NCI-H23 > 100 µM | SN12C > 100 µM | UACC-257 > 100 µM | SK-MEL-5 > 100 µM

N#CCC(=O)N1CCCCCCC1
inactive: SK-MEL-2 > 100 µM | A498 > 100 µM | HL-60 28.2 µM | HOP-62 > 100 µM | Malme-3M > 100 µM | UACC-62 > 100 µM | HCT-116 > 100 µM | NCI-H23 > 100 µM | SN12C > 100 µM | UACC-257 > 100 µM | SK-MEL-5 > 100 µM

O=C(COC(=O)c1cccc2c(=O)c3ccccc3[nH]c12)Nc1ccc(Cl)cc1
inactive: A498 7.96 µM | HL-60 11.6 µM | HOP-62 22.1 µM | Malme-3M > 100 µM | MOLT-4 26.3 µM | UACC-62 54.1 µM | HOP-92 58.9 µM | HCT-116 13.6 µM | OVCAR-8 > 100 µM | NCI-H23 18.8 µM | SN12C > 100 µM | UACC-257 > 100 µM | SK-MEL-5 44.2 µM

Cc1cccc2c1CCC21OC(=O)c2c1ccc1ccccc21 (stereo not given)
inactive: SK-MEL-2 24.5 µM | A498 16.8 µM | HL-60 22.1 µM | HOP-62 70.1 µM | Malme-3M 20 µM | MOLT-4 24.3 µM | UACC-62 40.3 µM | HCT-116 52.2 µM | OVCAR-8 85.9 µM | NCI-H23 32.9 µM | SN12C > 100 µM | UACC-257 25.8 µM | SK-MEL-5 19.6 µM

COc1ccc(C(=O)C/C(=N/NC(N)=S)C(=O)Nc2ccccc2)cc1
inactive: SK-MEL-2 > 100 µM | A498 > 100 µM | HL-60 > 100 µM | Malme-3M > 100 µM | MOLT-4 > 100 µM | UACC-62 > 100 µM | HCT-116 > 100 µM | OVCAR-8 > 100 µM | NCI-H23 > 100 µM | SN12C > 100 µM | UACC-257 > 100 µM | RPMI-8226 > 100 µM | SK-MEL-5 > 100 µM
